Laboratory results as given in patent US11028361B2, “Compositions and methods for stabilizing susceptible compounds” (LIFE TECHNOLOGIES CORPORATION, priority 2011, dated 2021).

What was measured:
HeLa cells = assay: HeLa cell growth with insulin-dendrimer-RGD conjugate, microencapsulated or not (FIG. 7B); format: cell-based; conditions: for Potency and growth characteristics of HeLa cells: FIG. 7B
Description: FIG. 7B: Impact of microencapsulation of the insulin-dendrimer-RGD covalent conjugate on the growth of HeLa cell Growth.

[1] = Microbeads protection studies during real-time ambient storage in AGT media (FIG. 8); format: physicochemical; conditions: FIG. 8, AGT media, ambient conditions
Description: FIG. 8: Microbeads protection studies during real-time ambient storage.

[2] = Stability of insulin / insulin-dendrimer with and without alginate microencapsulation (FIG. 7A, FIG. 10); format: physicochemical
Protocol: Further examples for microencapsulating labile compounds other than ethanolamine are shown below. A sequestering agent like alginate was used to encapsulate or embed a dendrimer-insulin complex. The labile compound insulin was polymerized with PAMAM dendrimer, and further microencapsulated in alginate microbeads with or without PLL. Briefly, for dendrimer generation, PAMAM 2.5 (carboxylate surface groups) was used. Insulin was conjugated onto the dendrimer to which RGD sequences were also added to target the cell surface. The ratios of components in this complex was dendrimer:RGD:insulin=1:7:12.
Concentration of conjugate and alginate was adjusted as on attachment. Next conjugate was added to the alginate and mixed several minutes to distribute evenly. It was dripped through a 26 gauge needle using a 1 ml syringe into a calcium chloride bath (13.32 g/L). It was left to incubate for 30 minutes to solidify microcapsules. Then rinsed 1× in a solution also containing the dendrimer conjugate to prevent loss of component from the microcapsules. Then dried overnight in a vacuum over dessicant. The loaded microbeads were then added to AGT dry-format medium or used by adding directly into a liquid medium.
The insulin concentration of the dendrimer-insulin-RGD conjugate was estimated to be ˜2 mg/ml (pg 165/168). It needed to be diluted in half to get to ˜1 mg/ml (1000 μg/ml). […]

[3] = test system: DG44-EPO, a CHO cell line expressing recombinant erythropoietin; assay: Cell culture potency of ethanolamine derivatives (viable cell density); format: cell-based, Chinese hamster; conditions: for Multiple of the ethanolamine molar equivalent yielding similar growth potential to ethanolamine: FIGS. 1A and 1B, titered up to 64× of a molar equivalent, viable cell density followed for 8 days
Description: We tested a range of ethanolamine derivatives for cell culture potency, including phosphorylethanolamine (PE), triethanolamine (TE), diethanolamine (DE), monomethylethanolamine (MME), dimethylethanolamine (DME), and N-acetylethanolaine (NAE). […] The cell line used was DG44-EPO, a CHO cell line expressing recombinant erythropoietin, that requires ethanolamine for good growth. Cells were inoculated at 3×10^5/ml and cultured bi-weekly for 3 subpassages in each condition prior to starting the assay. The assay was also inoculated at 3×10^5/ml but followed for 8 days for viable cell density from a ViCell cell counter.
Next we titered the compounds up to 64× of a molar equivalent. Both phoshorylethanolamine and NAE at about 16× the molar equivalent yielded similar growth potential to ethanolamine. In another set of experiments, NAE at about 16× the ethanolamine molar equivalent was again shown to be able to supplement an ethanolamine-sensitive line as well as ethanolamine. These latter experiments were performed in 24 well culture trays. Cells were inoculated at 1×10^5/ml and samples harvested at day 12. Because the nitrogen atom in NAE is contained within an amide structure, it is expected that NAE should be stable and can be used in place of ethanolamine in cell culture media.
The negative control is without ethanolamine. The line way above the rest should be disregarded—it is a CD CHO catalogue control, not relevant to this assay.

For alginate, the “Inhibition of / interference with viability or growth of HeLa cells” value (HeLa cells) was “did not interfere with viability or growth of Hela cells”.

With `NCCO` [Unencapsulated ethanolamine, ethanolamine] the “Ethanolamine potency (activity) during ambient storage” value [1] was “drops quickly” and the “Ethanolamine potency (activity) during ambient storage” value ([1]; listed as unprotected ethanolamine) was “dropped quickly”.

In the case of “unencapsulated dendrimer (with insulin): insulin conjugated onto PAMAM 2.5 dendrimer with RGD sequences, dendrimer:RGD:insulin=1:7:12, not encapsulated”, the “Potency of insulin at 4° C.” value [2] is reported as “comparable to that of insulin alone” and the “Potency and growth characteristics of HeLa cells” value (HeLa cells) is reported as “equivalent potency and growth characteristics of HeLa cells”.

For `CC(=O)NCCO` [NAE, N-acetylethanolamine], the “Higher concentration needed to perform in a cell growth assay comparable to ethanolamine” value ([3]; FIG. 2A (Example 2)) was 8-12 fold, the “Multiple of the ethanolamine molar equivalent able to supplement an ethanolamine-sensitive line comparable to ethanolamine” value ([3]; FIG. 2A cell growth titration assay (figure legend)) was 16-20 × and the “Multiple of the ethanolamine molar equivalent yielding similar growth potential to ethanolamine” value [3] was “about 16 ×”. For the same molecule, the “Multiple of the ethanolamine molar equivalent able to supplement an ethanolamine-sensitive line as well as ethanolamine” value ([3]; another set of experiments, 24 well culture trays, harvested at day 12) was “about 16 ×”.

With `NCCOP(=O)(O)O` [phoshorylethanolamine, phosphorylethanolamine] the “Multiple of the ethanolamine molar equivalent yielding similar growth potential to ethanolamine” value [3] was “about 16 ×”.

For insulin [insulin alone], the “Potency and growth characteristics of HeLa cells” value (HeLa cells) was “equivalent potency and growth characteristics of HeLa cells”.
